Source: ChEMBL document CHEMBL5543140 (J Med Chem, 2024)
The source made the active and inactive calls. The calls are words filed in the database; no cut-off is given here.

Experiments:
[1] = Metabolic stability in Sprague-Dawley rat liver microsomes assessed as deuteration effect measured upto 120 mins by LC-MS/MS analysis; assay type: ADME, Microsome; details: 2 h
[2] = Metabolic stability of the compound assessed as recombinant human MAO-mediated oxidative metabolism by measuring compound remaining measured upto 120 mins by LC-MS/MS analysis; assay type: ADME; details: 2 h
[3] = molecular target: T1, 5-hydroxytryptamine receptor 2A (Homo sapiens, UniProt P28223); experiment: Displacement of [3H]LSD from human 5-HT2A receptor expressed in HEK293 cell membrane incubated for 90 mins by microbeta liquid scintillation counting method; assay type: cell membranes
T1 sequence (P28223 whole entry): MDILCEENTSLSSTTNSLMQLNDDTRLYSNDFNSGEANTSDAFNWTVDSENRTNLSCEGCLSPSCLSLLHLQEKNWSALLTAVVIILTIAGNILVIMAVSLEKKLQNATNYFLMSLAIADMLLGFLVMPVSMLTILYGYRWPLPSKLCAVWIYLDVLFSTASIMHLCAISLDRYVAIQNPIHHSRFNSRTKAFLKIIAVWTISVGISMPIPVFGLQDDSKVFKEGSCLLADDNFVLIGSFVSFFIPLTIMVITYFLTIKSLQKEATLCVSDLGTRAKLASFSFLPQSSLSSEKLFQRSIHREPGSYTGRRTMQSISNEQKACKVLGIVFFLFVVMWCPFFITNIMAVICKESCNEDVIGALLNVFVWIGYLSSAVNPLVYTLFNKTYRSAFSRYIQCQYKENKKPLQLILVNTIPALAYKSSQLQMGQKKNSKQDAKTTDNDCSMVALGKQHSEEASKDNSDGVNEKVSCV

[4] = molecular target: T1, 5-hydroxytryptamine receptor 2A; experiment: Agonist activity at human 5-HT2A receptor expressed in HEK293 cells assessed as maximal IP2 production measured after 30 mins incubation by HTRF assay relative to control; assay type: functional, cell-based; details: filed as agonist
[5] = molecular target: T1, 5-hydroxytryptamine receptor 2A; experiment: Agonist activity at human 5-HT2A receptor expressed in HEK293 cells assessed as IP2 production measured after 30 mins incubation by HTRF assay; assay type: functional, cell-based
Mus musculus [6] = experiment: Psychedelic effect in C57BL/6J mouse assessed as number of head-twitch responses by visual observation at 3 mg/kg, po measured for 3 mins at 5 to 25 min; assay type: functional; details: 0.05 h
[7] = molecular target: T2, 5-hydroxytryptamine receptor 2C (Homo sapiens, UniProt P28335); experiment: Displacement of [3H]LSD from human 5-HT2C receptor expressed in HEK293 cell membrane incubated for 90 mins by microbeta liquid scintillation counting method; assay type: cell membranes
T2 sequence (P28335 whole entry): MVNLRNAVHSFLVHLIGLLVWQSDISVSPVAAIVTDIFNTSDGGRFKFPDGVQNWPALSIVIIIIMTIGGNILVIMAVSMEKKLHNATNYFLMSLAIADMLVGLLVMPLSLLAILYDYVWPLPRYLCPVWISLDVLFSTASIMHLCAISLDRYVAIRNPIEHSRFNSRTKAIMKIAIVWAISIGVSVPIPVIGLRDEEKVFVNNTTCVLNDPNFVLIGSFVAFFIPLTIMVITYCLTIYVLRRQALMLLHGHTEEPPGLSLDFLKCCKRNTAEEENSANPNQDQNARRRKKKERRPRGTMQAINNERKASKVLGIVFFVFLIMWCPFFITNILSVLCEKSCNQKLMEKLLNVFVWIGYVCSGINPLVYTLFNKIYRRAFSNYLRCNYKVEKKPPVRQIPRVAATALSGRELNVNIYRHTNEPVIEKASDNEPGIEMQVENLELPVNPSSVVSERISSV

[8] = molecular target: T3, 5-hydroxytryptamine receptor 2B (Homo sapiens, UniProt P41595); experiment: Displacement of [3H]LSD from human 5-HT2B receptor expressed in HEK293 cell membrane incubated for 90 mins by microbeta liquid scintillation counting method; assay type: cell membranes
T3 sequence (P41595 whole entry): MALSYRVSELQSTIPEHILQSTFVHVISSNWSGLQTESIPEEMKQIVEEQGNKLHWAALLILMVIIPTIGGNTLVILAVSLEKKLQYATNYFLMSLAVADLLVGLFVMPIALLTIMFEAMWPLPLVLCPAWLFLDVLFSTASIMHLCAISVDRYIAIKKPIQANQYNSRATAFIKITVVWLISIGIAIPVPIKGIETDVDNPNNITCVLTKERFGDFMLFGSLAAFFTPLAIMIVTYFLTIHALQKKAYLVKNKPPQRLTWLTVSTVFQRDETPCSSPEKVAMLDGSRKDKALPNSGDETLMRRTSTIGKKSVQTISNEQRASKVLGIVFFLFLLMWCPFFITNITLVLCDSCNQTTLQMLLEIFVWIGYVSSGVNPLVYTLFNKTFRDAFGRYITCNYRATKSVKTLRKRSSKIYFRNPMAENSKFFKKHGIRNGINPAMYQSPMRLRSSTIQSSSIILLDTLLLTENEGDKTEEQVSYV

Mus musculus [9] = experiment: Psychedelic effect in C57BL/6J mouse assessed as number of head-twitch responses by visual observation at 3 mg/kg, po measured for 3 mins at 160 to 170 min; assay type: functional; details: 0.05 h
[10] = molecular target: Muscarinic acetylcholine receptor M4 (Homo sapiens) (UniProt P08173); experiment: Displacement of [3H]4-DAMP from human recombinant muscarinic M4 receptor expressed in HEK293 cells at 10 uM incubated for 60 mins by radiometric based scintillation counter assay relative to control; assay type: cell-based
Muscarinic acetylcholine receptor M4 (Homo sapiens), sequence (P08173 whole entry): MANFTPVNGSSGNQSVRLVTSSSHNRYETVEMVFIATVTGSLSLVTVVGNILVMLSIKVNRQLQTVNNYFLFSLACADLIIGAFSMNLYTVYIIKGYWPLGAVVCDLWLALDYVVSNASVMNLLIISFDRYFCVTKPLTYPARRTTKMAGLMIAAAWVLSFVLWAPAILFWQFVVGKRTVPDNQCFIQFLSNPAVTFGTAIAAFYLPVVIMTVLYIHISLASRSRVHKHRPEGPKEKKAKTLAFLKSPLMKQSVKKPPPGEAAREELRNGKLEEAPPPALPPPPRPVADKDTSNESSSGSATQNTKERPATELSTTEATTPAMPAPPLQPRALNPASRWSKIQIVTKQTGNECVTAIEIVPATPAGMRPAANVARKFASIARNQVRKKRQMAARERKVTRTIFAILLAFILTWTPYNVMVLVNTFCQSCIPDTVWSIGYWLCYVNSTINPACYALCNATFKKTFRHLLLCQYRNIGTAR

[11] = molecular target: Muscarinic acetylcholine receptor M5 (Homo sapiens) (UniProt P08912); experiment: Displacement of [3H]4-DAMP from human recombinant muscarinic M5 receptor expressed in HEK293 cells at 10 uM incubated for 60 mins by radiometric based scintillation counter assay relative to control; assay type: cell-based
Muscarinic acetylcholine receptor M5 (Homo sapiens), sequence (P08912 whole entry): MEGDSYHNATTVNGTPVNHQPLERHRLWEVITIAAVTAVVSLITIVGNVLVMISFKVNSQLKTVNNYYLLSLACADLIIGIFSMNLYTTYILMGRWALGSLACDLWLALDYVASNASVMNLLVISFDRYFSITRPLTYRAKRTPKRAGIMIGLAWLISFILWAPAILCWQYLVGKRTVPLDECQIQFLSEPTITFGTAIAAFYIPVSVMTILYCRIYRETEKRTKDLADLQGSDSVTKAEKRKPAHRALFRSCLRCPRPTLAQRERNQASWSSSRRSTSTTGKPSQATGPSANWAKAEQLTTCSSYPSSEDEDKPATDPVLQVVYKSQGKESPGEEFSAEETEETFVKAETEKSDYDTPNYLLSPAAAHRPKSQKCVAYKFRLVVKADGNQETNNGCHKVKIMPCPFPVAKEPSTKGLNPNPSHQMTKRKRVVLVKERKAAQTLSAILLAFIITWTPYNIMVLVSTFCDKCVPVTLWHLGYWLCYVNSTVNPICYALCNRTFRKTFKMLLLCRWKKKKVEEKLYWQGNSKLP

Mus musculus [12] = experiment: Locomotor activity in C57BL/6J mouse assessed as distance traveled at 1 mg/kg, ip measured for 15 to 25 mins; assay type: functional; details: time 15-25 min
[13] = molecular target: T3, 5-hydroxytryptamine receptor 2B; experiment: Agonist activity at human 5-HT2B receptor expressed in CHO cells assessed as maximal IP2 production measured after 30 mins incubation by HTRF assay relative to control; assay type: functional, cell-based
Mus musculus [14] = experiment: Psychedelic effect in C57BL/6J mouse assessed as induction of 5-HT2A receptor dependent maximal head-twitch responses by visual observation at 1 mg/kg, sc at 15 to 220 mins; assay type: functional, organism-based; details: time lower 15.0 min, time upper […]
[15] = molecular target: Voltage-dependent L-type calcium channel subunit alpha-1C (Homo sapiens, UniProt Q13936); experiment: Binding affinity to human Calcium channel L-type (verapamil site) at 10 uM measured after 180 mins by [3H]D888-Radiometric assay relative to control
Voltage-dependent L-type calcium channel subunit alpha-1C, sequence (Q13936 whole entry): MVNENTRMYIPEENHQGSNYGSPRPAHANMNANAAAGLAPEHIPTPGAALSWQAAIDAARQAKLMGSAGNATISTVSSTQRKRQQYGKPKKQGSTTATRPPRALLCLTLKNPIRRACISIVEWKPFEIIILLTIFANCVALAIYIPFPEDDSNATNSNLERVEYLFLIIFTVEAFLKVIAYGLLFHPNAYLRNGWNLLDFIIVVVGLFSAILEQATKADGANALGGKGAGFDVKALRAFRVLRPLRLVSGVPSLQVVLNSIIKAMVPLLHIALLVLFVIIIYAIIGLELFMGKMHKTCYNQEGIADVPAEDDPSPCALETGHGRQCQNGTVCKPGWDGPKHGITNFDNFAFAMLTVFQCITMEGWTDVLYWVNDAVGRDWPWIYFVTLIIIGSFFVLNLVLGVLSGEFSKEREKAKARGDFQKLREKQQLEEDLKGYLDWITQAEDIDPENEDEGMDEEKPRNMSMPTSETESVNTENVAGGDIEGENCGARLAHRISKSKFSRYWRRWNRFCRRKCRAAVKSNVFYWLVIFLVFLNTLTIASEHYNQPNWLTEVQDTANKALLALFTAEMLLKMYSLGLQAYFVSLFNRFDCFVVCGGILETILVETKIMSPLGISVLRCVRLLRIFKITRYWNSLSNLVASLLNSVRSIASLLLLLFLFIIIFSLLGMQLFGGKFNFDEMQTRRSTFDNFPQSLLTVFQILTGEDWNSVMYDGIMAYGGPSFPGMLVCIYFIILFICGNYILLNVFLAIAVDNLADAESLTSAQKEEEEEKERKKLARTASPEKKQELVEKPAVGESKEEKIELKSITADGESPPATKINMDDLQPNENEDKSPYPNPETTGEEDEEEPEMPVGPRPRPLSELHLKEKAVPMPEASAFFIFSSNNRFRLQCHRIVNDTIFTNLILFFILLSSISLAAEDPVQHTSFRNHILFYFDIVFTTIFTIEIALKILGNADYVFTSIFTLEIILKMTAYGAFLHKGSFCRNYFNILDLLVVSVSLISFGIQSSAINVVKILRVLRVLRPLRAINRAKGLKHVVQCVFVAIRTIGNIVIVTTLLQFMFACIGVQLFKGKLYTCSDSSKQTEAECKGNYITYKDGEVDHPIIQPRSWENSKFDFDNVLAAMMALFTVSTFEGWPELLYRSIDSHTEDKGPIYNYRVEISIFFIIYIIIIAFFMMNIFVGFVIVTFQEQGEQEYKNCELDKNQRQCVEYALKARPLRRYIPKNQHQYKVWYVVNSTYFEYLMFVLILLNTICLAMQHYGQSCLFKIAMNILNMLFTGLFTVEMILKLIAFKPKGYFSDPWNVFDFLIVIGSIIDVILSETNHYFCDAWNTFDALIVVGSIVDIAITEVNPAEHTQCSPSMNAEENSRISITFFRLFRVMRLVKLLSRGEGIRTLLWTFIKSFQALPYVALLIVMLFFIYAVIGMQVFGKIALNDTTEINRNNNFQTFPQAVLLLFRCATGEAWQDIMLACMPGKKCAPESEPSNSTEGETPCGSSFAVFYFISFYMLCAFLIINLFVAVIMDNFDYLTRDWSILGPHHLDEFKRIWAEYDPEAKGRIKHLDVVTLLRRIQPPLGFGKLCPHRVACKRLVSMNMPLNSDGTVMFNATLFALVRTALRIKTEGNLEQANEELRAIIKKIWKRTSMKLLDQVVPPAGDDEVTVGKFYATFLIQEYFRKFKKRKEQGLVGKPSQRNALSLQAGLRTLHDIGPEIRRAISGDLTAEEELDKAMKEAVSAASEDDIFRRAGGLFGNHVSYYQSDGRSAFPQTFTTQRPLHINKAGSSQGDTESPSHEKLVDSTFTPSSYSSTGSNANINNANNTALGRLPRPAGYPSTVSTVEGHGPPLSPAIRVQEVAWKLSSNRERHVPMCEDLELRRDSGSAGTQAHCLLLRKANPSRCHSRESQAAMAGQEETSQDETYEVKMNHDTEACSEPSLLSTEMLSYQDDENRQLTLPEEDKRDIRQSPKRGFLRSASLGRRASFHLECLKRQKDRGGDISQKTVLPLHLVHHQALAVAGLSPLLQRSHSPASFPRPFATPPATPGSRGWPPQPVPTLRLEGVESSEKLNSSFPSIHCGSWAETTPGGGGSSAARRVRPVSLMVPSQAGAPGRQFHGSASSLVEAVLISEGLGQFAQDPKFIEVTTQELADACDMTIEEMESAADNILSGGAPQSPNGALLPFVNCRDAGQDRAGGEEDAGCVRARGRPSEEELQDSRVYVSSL

[16] = molecular target: Muscarinic acetylcholine receptor M1 (Homo sapiens) (UniProt P11229); experiment: Displacement of [3H]-Pirenzepine from human muscarinic M1 expressed in CHO-K1 cells membrane at 10 uM incubated for 60 mins by microbeta liquid scintillation counting analysis; assay type: cell membranes; details: Cell membrane
Muscarinic acetylcholine receptor M1 (Homo sapiens), sequence (P11229 whole entry): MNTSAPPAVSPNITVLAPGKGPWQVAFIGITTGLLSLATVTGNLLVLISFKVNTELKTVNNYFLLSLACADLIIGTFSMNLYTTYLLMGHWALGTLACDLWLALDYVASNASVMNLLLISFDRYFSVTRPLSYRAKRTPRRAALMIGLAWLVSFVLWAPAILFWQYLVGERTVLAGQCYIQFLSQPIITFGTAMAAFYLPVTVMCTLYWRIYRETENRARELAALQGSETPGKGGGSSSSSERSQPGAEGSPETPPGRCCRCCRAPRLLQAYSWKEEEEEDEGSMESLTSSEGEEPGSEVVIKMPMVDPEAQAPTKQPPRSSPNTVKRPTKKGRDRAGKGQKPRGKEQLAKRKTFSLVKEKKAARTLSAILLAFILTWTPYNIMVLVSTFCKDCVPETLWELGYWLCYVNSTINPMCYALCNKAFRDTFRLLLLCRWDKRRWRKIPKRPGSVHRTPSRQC

[17] = molecular target: T4, 5-hydroxytryptamine receptor 1A (Homo sapiens) (UniProt P08908); experiment: Agonist activity at human 5-HT1A receptor expressed in HEK293T cells co-transfected with 22F-Glosensor assessed as inhibition of cAMP production measured after 30 mins incubation by Microbeta2Micro-plate counter analysis; assay type: functional, cell-based; details: filed as agonist
T4 sequence (whole entry): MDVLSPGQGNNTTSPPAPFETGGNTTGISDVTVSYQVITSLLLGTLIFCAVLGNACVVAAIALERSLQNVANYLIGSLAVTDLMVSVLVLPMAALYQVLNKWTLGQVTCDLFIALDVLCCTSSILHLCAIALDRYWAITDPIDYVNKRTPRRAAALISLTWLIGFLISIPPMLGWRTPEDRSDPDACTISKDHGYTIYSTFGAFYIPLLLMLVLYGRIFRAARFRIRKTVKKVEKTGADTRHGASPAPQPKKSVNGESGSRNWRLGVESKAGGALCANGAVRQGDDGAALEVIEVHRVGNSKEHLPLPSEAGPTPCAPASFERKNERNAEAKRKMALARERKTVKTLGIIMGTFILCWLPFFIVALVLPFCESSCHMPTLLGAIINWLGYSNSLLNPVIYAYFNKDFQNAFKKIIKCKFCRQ

[18] = molecular target: 5-hydroxytryptamine receptor 2C (Homo sapiens) (UniProt P28335); experiment: Agonist activity at human 5-HT2C receptor expressed in HEK293 cells assessed as maximal IP2 production measured after 30 mins incubation by HTRF assay relative to control; assay type: functional, cell-based; details: filed as agonist
[19] = molecular target: Adrenergic receptor alpha-2 (Rattus norvegicus) (UniProt P22086+P19328+P22909); experiment: Displacement of [3H]RX 821002 from rat cerebral cortex alpha2 adrenergic receptor assessed as remaining activity at 10 uM after 60 mins by scintillation counting method relative to control
[20] = Lipophilicity, logP of the compound; assay type: physicochemical; details: octanol/water
[21] = Chemical stability of the compound in water measured for 5 days; assay type: physicochemical; details: buffer, 120 h; time 5 day
[22] = Chemical stability of the compound in buffer solution at pH 1 to 6.8 measured for 5 days; assay type: physicochemical; details: pH 1, 120 h, time 5 day

Cl.[2H]C([2H])([2H])Oc1cc(SC)c(OC([2H])([2H])[2H])cc1C[C@H](C)N
Stability [1]: Stable
Stability [2]: Stable

COc1cc(SCC(F)F)c(OC)cc1CCN
Ki ([3]; read-out: Ki): 146 nM

COc1cc(SC)c(OC)cc1C[C@@H](C)N.Cl
Stability [1]: Stable
Stability [2]: Stable

COc1cc(SCC#N)c(OC)cc1CCN
Emax [4]: 77%
Ki ([3]; read-out: Ki): 36 nM
EC50 ([5]; read-out: EC50): 6.1 nM

Cl.[2H]C([2H])(N)Cc1cc(OC)c(C(F)(F)F)cc1OC
Stability [1]: Stable
Stability [2]: Stable

COc1cc(S(=O)(=O)C(F)(F)F)c(OC)cc1CCN.Cl
Activity (Mus musculus [6]): 26
Ki ([3]; read-out: Ki): 1.9 nM
Ki [7]: 13 nM
Ki [8]: 8.4 nM
Activity (Mus musculus [9]): 28

COc1cc(SSC(C)(C)C)c(OC)cc1CCN.Cl
Activity (Mus musculus [6]): 0.6
Ki ([3]; read-out: Ki): 59 nM
Ki [7]: 26 nM
Ki [8]: 10 nM
Activity (Mus musculus [9]): 4.8

Cl.[2H]C([2H])([2H])Oc1cc(C(F)(F)F)c(OC([2H])([2H])[2H])cc1CCN
Stability [1]: Stable
Stability [2]: Stable

COc1cc(CC(C)N)c(OC)cc1I (racemic)
inhibition [10]: 76%
inhibition [11]: 63%
Activity (Mus musculus [12]): 2812 cm
EC50 ([13]; read-out: EC50): 7 nM
EC50 ([13]; read-out: pEC50 (converted)): 7.94 nM
Activity (Mus musculus [14]): Active
Activity [15]: 56%
inhibition [16]: 72%
Emax [17]: 103%
Emax [18]: 96%
Activity [19]: 82%

Cl.[2H]C([2H])([2H])Oc1cc(SC)c(OC([2H])([2H])[2H])cc1CCN
Stability [1]: Stable
Stability [2]: Stable

COc1cc(C2CCCC2)c(OC)cc1CCN
Ki ([3]; read-out: Ki): 134 nM

Cl.[2H]C([2H])([2H])Oc1cc(C(C)(C)C)c(OC([2H])([2H])[2H])cc1CCN
Stability [1]: Stable
Stability [2]: Stable

Cl.[2H]C([2H])([2H])Oc1cc(C2CCCC2)c(OC([2H])([2H])[2H])cc1CCN
Stability [1]: Stable
Stability [2]: Stable

COc1cc(C(C)=O)c(OC)cc1CCN.Cl
logP [20]: 0.42
EC50 ([5]; hek293): Not Active

Cl.[2H]C([2H])([2H])C(c1cc(OC)c(CCN)cc1OC)(C([2H])([2H])[2H])C([2H])([2H])[2H]
Stability [1]: Stable
Stability [2]: Stable

COc1cc(S(=O)(=O)C(C)(C)C)c(OC)cc1CCN
EC50 ([5]; read-out: EC50): 530 nM

COc1cc(SC(F)(F)F)c(OC)cc1CCN.Cl
Activity (Mus musculus [6]): 21
Stability [21]: Stable
Stability [22]: Stable
Activity (Mus musculus [9]): 30

COc1cc(OCCCF)c(OC)cc1CCN
Ki ([3]; read-out: Ki): 1640 nM
Ki ([3]; read-out: pKi (converted)): 1700 nM

COc1cc(OCCC(F)F)c(OC)cc1CCN
Ki ([3]; read-out: Ki): 387 nM

Cl.[2H]C([2H])([2H])Oc1cc(SC)c(OC([2H])([2H])[2H])cc1C[C@@H](C)N
Stability [1]: Stable
Stability [2]: Stable

COc1cc(CCN)cc(OC)c1SC(F)(F)F
Emax [4]: 96%
Ki ([3]; read-out: Ki): 45 nM
EC50 ([5]; read-out: EC50): 41 nM
